According to patent publication US20180306790A1, “USE OF EB1 AS A BIOMARKER OF DRUG RESPONSE” (BASILEA PHARMACEUTICA INTERNATIONAL AG, priority 2015, published 2018):
Where two headings read alike, the source gives them in different places.

Experiments:
[1] = tested on: GBM9 CSCs; experiment: Transwell cell migration assay; format: cell-based, human; details: 5 hours transmigration
Procedure: (§1) Stem cells (50′000) were poured on the upper side of a transwell migration chamber ([…] filter, BD) in DMEM. The lower side of the chamber was filled with DMEM, supplemented with 10% FCS. Cells were allowed to transmigrate for 5 hours and then chambers were removed. […] After washing and drying, pictures of six fields per condition were imaged at a magnification of 10× and transmigrated cells were counted.

[2] = tested on: GBM6 CSCs; experiment: Transwell cell migration assay; format: cell-based, human
Procedure: as §1

[3] = tested on: GBM6 CSCs; experiment: Clonogenic survival assay; format: cell-based, human; details: 6 and 10 nM, 72 hours
Procedure: Cells were grown in previously poly-DL-ornithine (Sigma-Aldrich) coated 6-well plates (1000 cells/well) and after treatment for 72 hours with BAL27862, incubated for up to 5 days. Colonies were stained with 1% Crystal-violet solution in 20% methanol (Sigma-Aldrich). The colonies with more than 50 cells were counted. At least three independent experiments were performed.

[4] = tested on: GBM9 CSCs; experiment: Cytotoxic assay (sulforhodamine B growth inhibition, 72 hours); format: cell-based, human; details: at least three independent experiments, read-out: EC50 +/− SEM, cytotoxic activity
Procedure: (§2) Cells (5000 cells/well) were seeded in previously poly-DL-ornithine (Sigma-Aldrich) coated 96-well plates (10 μg/mL) and allowed to grow for 24 hours before treatment with BAL27862. Growth inhibition of cells was measured after 72 hours by using a sulforhodamine B assay kit (Sigma-Aldrich). Cell density was analyzed using a microplate reader (Labsystems Multiscan, Thermo, Villebon sur Yvette, France) and analysis of EC50 were performed with GraphPad 5.0 statistical software (GraphPad Software, La Jolla, USA). At least three independent experiments were performed.

[5] = tested on: GBM6 CSCs; experiment: as above; format: cell-based, human; details: at least three independent experiments, read-out: EC50 +/− SEM, cytotoxic activity
Procedure: as §2

[6] = tested on: GBM6 CSCs; experiment: Self-renewal capacity determination (sphere formation); format: cell-based, human; details: 6 nM, 72 hours
Procedure: GBM6 cells were seeded in previously poly-DL-ornithine (Sigma-Aldrich) coated 6-well plates (150′000 cells/well). After 24 hours, cells were treated or not with BAL27862 for 72 hours. At the end of treatment, the supernatant was removed and cells were harvested, dissociated into single cells and plated in 96-well plates (1-5 cells/well). Eight days later, the spheres were counted under an inverted light microscope (Leica DMI 4000B) (Leica, Saint Jorioz, France). Three independent experiments were performed.

[7] = tested on: GBM6 CSCs; experiment: FACS analysis of A2B5 positive GBM6 brain tumor CSCs in vitro; format: cell-based, human; details: 6 nM, 72 hours
Procedure: GBM6 cells were seeded at 300′000 cells/well into poly-DL-ornithine-coated 6-well plates (10 μg/mL)(Sigma-Aldrich), in stem cell-permissive medium (5 mg/mL Insulin, 0.1 mM Putrescine, […] Transferrin, 2.10^−8M Progesterone, 50 mg/mL Penicillin-Streptomycin and growth factors including 10 ng/mL basic fibroblast growth factor (bFGF), 20 ng/mL epidermal growth factor (EGF) and B27). One day later, cells were treated with BAL27862 for 72 hours. Then, cells were trypsinized, suspended in Hanks' Balanced Salt Solution (HBSS) buffer (Life technologies) containing blocking solution (Miltenyi Biotec) and incubated with A2B5-APC (clone 105HB29, reference 130-093-582) and CD133-PE (clone 293C3, reference 130-090-853) antibodies (Miltenyi Biotec) for 10 minutes. Cells were then fixed with 10% paraformaldehyde (Sigma-Aldrich) for 20 minutes and analyzed using flow cytometry (FACS Calibur™ BD Biosciences). A total of 100′000 events were counted for each sample and data were recorded with the CellQuest Pro Software (BD Biosciences) and analyzed using FlowJo software (Tree Star Inc., San Carlos, Calif.) and the Dean-Jet-Fox model analysis.

[8] = tested on: orthotopic GBM6 tumors; experiment: FACS analysis of A2B5 brain tumor cancer stem cells from orthotopic GBM6 tumors; format: in vivo, mouse; details: 25 mg/kg i.v. days 30/33/36, day 45
Procedure: (§3) Approximately 100′000 cells of GBM6 GFP sh0 or shEB1 cells were stereotactically injected into the subventricular zone (0.5 mm anterior to bregma, −1 mm lateral, and −2.1 mm deep to the cortex surface) of 6-week-old athymic Nude mice. Grafted mice were intravenously treated with 25 mg/kg BAL101553 (three times at 30, 33 and 36 days after glioma implantation) or with vehicle (control). Forty five days after implantation, three animals of each group were sacrificed for analysis of tumor volumes (by three-dimensional brain reconstructions) or for FACS analysis.
After anesthesia, animals were perfused with PBS, and brains were removed and stored in HBSS buffer containing 2% FBS. Cells were dissociated in a cocktail of enzymes (DNase I (Roche, Rotkreuz, Switzerland), Collagenase D (Roche) and V (Sigma-Aldrich) with GentleMACS dissociator (Miltenyi Biotech)). The reaction was stopped by adding DMEM containing 10% FCS. The suspension was filtered and cells were resuspended in 40% Percoll (Sigma-Aldrich). After centrifugation, myelin was removed and cells were resuspended in HBSS buffer containing 2% FCS. Cells were incubated in HBSS containing 2% FCS with A2B5-APC and CD133-PE antibodies for 10 minutes. Cells were then fixed with 10% paraformaldehyde for 20 minutes and analyzed using flow cytometry. A total of 100′000 events were counted for each sample and data were recorded with the CellQuest Pro Software and analyzed using FlowJo software choosing the Dean-Jet-Fox model analysis.

[9] = tested on: orthotopic GBM6 tumors; experiment: Orthotopic GBM6 xenografts, tumor volume by three-dimensional brain reconstruction; format: in vivo, mouse; details: 25 mg/kg i.v. days 30/33/36, day 45
Procedure: as §3
For analysis of tumor volumes, mice were anesthetized and perfused with 4% paraformaldehyde. Brains were removed and fixed in 4% paraformaldehyde for 2 days at 4° C., then rinsed and conserved in PBS until dissection. Brains were entirely cut into 50-100-μm-thick sections using Vibratome (Leica) following the sagittal axis. A total of 60 sections per brain were obtained. Mapping and analysis of GFP-injected cells and tumors were performed by using a Leica DMLB fluorescence microscope, a Leica DC300F digital camera, and the Leica FW4000 imaging software (Leica). Three-dimensional brain reconstructions were obtained using FreeD software (Andrey P., Free-D: an integrated environment for three-dimensional reconstruction from serial sections. Journal of Neuroscience Methods. 2005; 145(1-2):233-244). […]

[10] = GBM6 GFP sh0 (normal EB1 levels)
[11] = GBM6 GFP shEB1 (EB1 downregulated)

N#CCCNc1nonc1-c1nc2ccccc2n1CC(=O)c1ccc(N)cc1 [BAL27862, 3-(4-{1-[2-(4-amino-phenyl)-2-oxo-ethyl]-1H-benzoimidazol-2-yl}-furazan-3-ylamino)-propionitrile]
inhibition of cell migration ([1]; GBM9, cytotoxic 20 nM): drastically inhibited the migration
inhibition of cell migration ([1]; GBM9, non-cytotoxic 6 nM): did not respond
inhibition of cell migration ([2]; EB1 downregulated GBM6 cells (shEB1), 6 nM): inhibitory effect of BAL27862 treatment was drastically reduced
inhibition of cell migration ([2]; GBM6, cytotoxic 20 nM, 5 hours transmigration): drastically inhibited the migration
inhibition of cell migration ([2]; GBM6, non-cytotoxic 6 nM, 5 hours transmigration): statistically significant inhibition of cell migration
inhibition of cell migration ([2]; control EB1-expressing GBM6 cells, 6 nM): statistically significant inhibition of cell migration
clonogenic capacity (colony formation) [3, 10]: impaired the clonogenic capacity of GBM6 CSCs at the sub-toxic doses of 6 and 10 nM in a statistically significant manner
clonogenic capacity (colony formation) ([3]; GBM6 GFP shEB1 (EB1 levels downregulated)): only in the EB1-expressing cells
EC50 ([4]; Homo sapiens, 72 h): ~20 nM
EC50 [4]: 21.7 nM
EC50 ([5]; Homo sapiens, GBM6, 72 h): ~20 nM
EC50 [5]: 20.8 nM
sphere formation [6, 10]: interferes statistically significantly with sphere formation
sphere formation [6, 11]: suppresses the inhibitory activity of BAL27862
sphere formation ([6]; GBM6 wild-type): interferes statistically significantly with sphere formation
A2B5 positive cell number ([7]; GBM6 GFP sh0 (EB1 expressed)): significant inhibition
A2B5 positive cell number [7, 11]: less sensitive

N#CCCNc1nonc1-c1nc2ccccc2n1CC(=O)c1ccc(NC(=O)[C@@H](N)CCCCN)cc1 [BAL101553]
proportion of A2B5 positive GBM6 cells ([8]; EB1 downregulated GBM6 tumors): ~80%
proportion of A2B5 negative GBM6 cells ([8]; EB1 expressing GBM6 tumors): 80%
proportion of A2B5 positive GBM6 cells ([8]; EB1 expressing GBM6 tumors): 20%
tumor mass (size) and tumor spreading versus vehicle ([9]; GBM6 GFP sh0 (EB1-expressing) tumors): clear reduction of the tumor mass (size) and in tumor spreading
tumor mass (size) and tumor spreading versus vehicle ([9]; GBM6 GFP shEB1 (EB1 negative) tumors): minimal
